Data published in publication PMC7156458, “Synthetic biology based construction of biological activity-related library of fungal decalin-containing diterpenoid pyrones” (Nature Communications, 2020).

Molecular target: Aβ42 (Homo sapiens, UniProt P05067)
Experiment: Th-T (thioflavin-T) assay of Aβ42 aggregation
Type: biochemical

Chain of Aβ42 (P05067 672-713): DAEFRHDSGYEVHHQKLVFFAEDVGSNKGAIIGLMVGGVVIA

C=C1CC[C@@H]2[C@](C)(CC[C@H]3O[C@H](C=C(C)C)C[C@@]23C)[C@@H]1Cc1c(OC)oc(CO)c(C(=O)OC)c1=O [Compound 21]
Fig. 7a Th-T reading, mean of three wells (column suffix _20, reading M101): 0.9158
Fig. 7a Th-T reading, mean of three wells (column suffix _20, reading M102): 0.9188
Fig. 7a Th-T reading, mean of three wells (column suffix _20, reading M103): 0.9187
Fig. 7a Th-T reading, mean of three wells (column suffix _20, reading M104): 0.9595
Fig. 7a Th-T reading, mean of three wells (column suffix _20, reading M105): 0.9387
Fig. 7a Th-T reading, mean of three wells (column suffix _20, reading M106): 0.9399
Th-T fluorescence, mean of three wells (Fig. 7a) (column suffix _50, measurement M19): 0.2078
Th-T fluorescence, mean of three wells (Fig. 7a) (column suffix _50, measurement M20): 0.2087
Th-T fluorescence, mean of three wells (Fig. 7a) (column suffix _50, measurement M21): 0.2125
Th-T fluorescence, mean of three wells (Fig. 7a) (column suffix _50, measurement M22): 0.212
Th-T fluorescence, mean of three wells (Fig. 7a) (column suffix _50, measurement M23): 0.2107
Th-T fluorescence, mean of three wells (Fig. 7a) (column suffix _50, measurement M24): 0.2101
Th-T fluorescence, mean of three wells (Fig. 7a) (column suffix _50, measurement M25): 0.2098
Th-T fluorescence, mean of three wells (Fig. 7a) (column suffix _50, measurement M26): 0.2113
Th-T fluorescence, mean of three wells (Fig. 7a) (column suffix _50, measurement M27): 0.2118
Th-T fluorescence, mean of three wells (Fig. 7a) (column suffix _50, measurement M28): 0.2093
Th-T fluorescence, mean of three wells (Fig. 7a) (column suffix _50, measurement M29): 0.2091
Th-T assay signal, mean of three wells (Fig. 7a) (column suffix _50, reading M1): 0.2216
Th-T assay signal, mean of three wells (Fig. 7a) (column suffix _50, reading M2): 0.219
Th-T assay signal, mean of three wells (Fig. 7a) (column suffix _50, reading M3): 0.2148
Th-T assay signal, mean of three wells (Fig. 7a) (column suffix _50, reading M4): 0.2093
Th-T assay signal, mean of three wells (Fig. 7a) (column suffix _50, reading M5): 0.2111
Th-T assay signal, mean of three wells (Fig. 7a) (column suffix _50, reading M6): 0.209
Th-T assay signal, mean of three wells (Fig. 7a) (column suffix _50, reading M7): 0.2096
Th-T assay signal, mean of three wells (Fig. 7a) (column suffix _50, reading M8): 0.2075
Th-T assay signal, mean of three wells (Fig. 7a) (column suffix _50, reading M9): 0.2085
Th-T assay signal, mean of three wells (Fig. 7a) (column suffix _50, reading M10): 0.2097
Th-T assay signal, mean of three wells (Fig. 7a) (column suffix _50, reading M11): 0.2085
Th-T assay signal, mean of three wells (Fig. 7a) (column suffix _50, reading M12): 0.2082
Th-T assay signal, mean of three wells (Fig. 7a) (column suffix _50, reading M13): 0.2085
Th-T assay signal, mean of three wells (Fig. 7a) (column suffix _50, reading M14): 0.2061
Th-T assay signal, mean of three wells (Fig. 7a) (column suffix _50, reading M15): 0.2099
Th-T assay signal, mean of three wells (Fig. 7a) (column suffix _50, reading M16): 0.2095
Th-T assay signal, mean of three wells (Fig. 7a) (column suffix _50, reading M17): 0.2108
Th-T assay signal, mean of three wells (Fig. 7a) (column suffix _50, reading M18): 0.2093
Fig. 7a Th-T reading, mean of three wells (column suffix _50, reading M85): 0.38
Fig. 7a Th-T reading, mean of three wells (column suffix _50, reading M86): 0.3921
Fig. 7a Th-T reading, mean of three wells (column suffix _50, reading M87): 0.401
Fig. 7a Th-T reading, mean of three wells (column suffix _50, reading M88): 0.4081
Fig. 7a Th-T reading, mean of three wells (column suffix _50, reading M89): 0.4167
Fig. 7a Th-T reading, mean of three wells (column suffix _50, reading M90): 0.4233
Fig. 7a Th-T reading, mean of three wells (column suffix _50, reading M91): 0.4313
Fig. 7a Th-T reading, mean of three wells (column suffix _50, reading M92): 0.4386
Fig. 7a Th-T reading, mean of three wells (column suffix _50, reading M93): 0.4449
Fig. 7a Th-T reading, mean of three wells (column suffix _50, reading M94): 0.4505
Fig. 7a Th-T reading, mean of three wells (column suffix _50, reading M95): 0.4544
Fig. 7a Th-T reading, mean of three wells (column suffix _50, reading M96): 0.4583
Fig. 7a Th-T reading, mean of three wells (column suffix _50, reading M97): 0.4639
Fig. 7a Th-T reading, mean of three wells (column suffix _50, reading M98): 0.4638
Fig. 7a Th-T reading, mean of three wells (column suffix _50, reading M99): 0.4696
Fig. 7a Th-T reading, mean of three wells (column suffix _50, reading M100): 0.4671
Fig. 7a Th-T reading, mean of three wells (column suffix _50, reading M101): 0.4718
Fig. 7a Th-T reading, mean of three wells (column suffix _50, reading M102): 0.4727
Fig. 7a Th-T reading, mean of three wells (column suffix _50, reading M103): 0.4762
Fig. 7a Th-T reading, mean of three wells (column suffix _50, reading M104): 0.4757
Fig. 7a Th-T reading, mean of three wells (column suffix _50, reading M105): 0.4769
Fig. 7a Th-T reading, mean of three wells (column suffix _50, reading M106): 0.4817
Th-T fluorescence, mean of three wells (compound at 10, reading M41 of time course): 0.2566
Th-T fluorescence, mean of three wells (compound at 10, reading M42 of time course): 0.2579
Th-T fluorescence, mean of three wells (compound at 10, reading M43 of time course): 0.2567
Th-T fluorescence, mean of three wells (compound at 10, reading M44 of time course): 0.2585
Th-T fluorescence, mean of three wells (compound at 10, reading M45 of time course): 0.2609
Th-T fluorescence, mean of three wells (compound at 10, reading M46 of time course): 0.2644
Th-T fluorescence, mean of three wells (compound at 10, reading M47 of time course): 0.2626
Th-T fluorescence, mean of three wells (compound at 10, reading M48 of time course): 0.2676
Th-T fluorescence, mean of three wells (compound at 10, reading M49 of time course): 0.2662
Th-T fluorescence, mean of three wells (compound at 10, reading M50 of time course): 0.2709
Th-T fluorescence, mean of three wells (compound at 10, reading M51 of time course): 0.2759
Th-T fluorescence, mean of three wells (compound at 10, reading M52 of time course): 0.2782
Th-T fluorescence, mean of three wells (compound at 10, reading M53 of time course): 0.2826
Th-T fluorescence, mean of three wells (compound at 10, reading M54 of time course): 0.2883
Th-T fluorescence, mean of three wells (compound at 10, reading M55 of time course): 0.2969
Th-T fluorescence, mean of three wells (compound at 10, reading M56 of time course): 0.3032
Th-T fluorescence, mean of three wells (compound at 10, reading M57 of time course): 0.3204
Th-T fluorescence, mean of three wells (compound at 10, reading M58 of time course): 0.3339
Th-T fluorescence, mean of three wells (compound at 10, reading M59 of time course): 0.3536
Th-T fluorescence, mean of three wells (compound at 10, reading M60 of time course): 0.3831
Th-T fluorescence, mean of three wells (compound at 10, reading M61 of time course): 0.414
Th-T fluorescence, mean of three wells (compound at 10, reading M62 of time course): 0.4619
Th-T fluorescence, mean of three wells (compound at 20, reading M41 of time course): 0.2134
Th-T fluorescence, mean of three wells (compound at 20, reading M42 of time course): 0.2125
Th-T fluorescence, mean of three wells (compound at 20, reading M43 of time course): 0.2115
Th-T fluorescence, mean of three wells (compound at 20, reading M44 of time course): 0.212
Th-T fluorescence, mean of three wells (compound at 20, reading M45 of time course): 0.2129
Th-T fluorescence, mean of three wells (compound at 20, reading M46 of time course): 0.214
Th-T fluorescence, mean of three wells (compound at 20, reading M47 of time course): 0.2155
Th-T fluorescence, mean of three wells (compound at 20, reading M48 of time course): 0.2155
Th-T fluorescence, mean of three wells (compound at 20, reading M49 of time course): 0.2153
Th-T fluorescence, mean of three wells (compound at 20, reading M50 of time course): 0.2164
Th-T fluorescence, mean of three wells (compound at 20, reading M51 of time course): 0.2208
Th-T fluorescence, mean of three wells (compound at 20, reading M52 of time course): 0.2184
Th-T fluorescence, mean of three wells (compound at 20, reading M53 of time course): 0.2214
Th-T fluorescence, mean of three wells (compound at 20, reading M54 of time course): 0.2246
Th-T fluorescence, mean of three wells (compound at 20, reading M55 of time course): 0.224
Th-T fluorescence, mean of three wells (compound at 20, reading M56 of time course): 0.2282
Th-T fluorescence, mean of three wells (compound at 20, reading M57 of time course): 0.2293
Th-T fluorescence, mean of three wells (compound at 20, reading M58 of time course): 0.2297
Th-T fluorescence, mean of three wells (compound at 20, reading M59 of time course): 0.2309
Th-T fluorescence, mean of three wells (compound at 20, reading M60 of time course): 0.2314
Th-T fluorescence, mean of three wells (compound at 20, reading M61 of time course): 0.2372
Th-T fluorescence, mean of three wells (compound at 20, reading M62 of time course): 0.2381
Th-T fluorescence, mean of three wells (compound at 50, reading M41 of time course): 0.2143
Th-T fluorescence, mean of three wells (compound at 50, reading M42 of time course): 0.2133
Th-T fluorescence, mean of three wells (compound at 50, reading M43 of time course): 0.2141
Th-T fluorescence, mean of three wells (compound at 50, reading M44 of time course): 0.2135
Th-T fluorescence, mean of three wells (compound at 50, reading M45 of time course): 0.2151
Th-T fluorescence, mean of three wells (compound at 50, reading M46 of time course): 0.2145
Th-T fluorescence, mean of three wells (compound at 50, reading M47 of time course): 0.2129
Th-T fluorescence, mean of three wells (compound at 50, reading M48 of time course): 0.2151
Th-T fluorescence, mean of three wells (compound at 50, reading M49 of time course): 0.2127
Th-T fluorescence, mean of three wells (compound at 50, reading M50 of time course): 0.2161
Th-T fluorescence, mean of three wells (compound at 50, reading M51 of time course): 0.2181
Th-T fluorescence, mean of three wells (compound at 50, reading M52 of time course): 0.2182
Th-T fluorescence, mean of three wells (compound at 50, reading M53 of time course): 0.2185
